# Test results reported in PubChem BioAssay (NCI).
#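 1) Cells in 96-well plates. 2) Compound, 48 h, 5 concentrations. 3) Linear interpolation between surrounding doses. 4) Unreached endpoint = highest concentration. TGI denotes the concentration required for complete inhibition of growth.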
# How the values were obtained:
# Assay in all cases: NCI anticancer screen, dose series, 48 h
# T-47D breast = test system: T-47D breast
# HOP-62 NSCLC = test system: HOP-62 NSCLC
# SF-295 CNS = test system: SF-295 CNS
# SN12C renal = test system: SN12C renal
# MALME-3M melanoma = test system: MALME-3M melanoma
# OVCAR-8 ovarian = test system: OVCAR-8 ovarian
Structure (SMILES),TGI (T-47D breast),TGI (HOP-62 NSCLC),TGI (SF-295 CNS),TGI (SN12C renal),TGI (MALME-3M melanoma),TGI (OVCAR-8 ovarian)
CC(=O)c1cc(C)n2c1CS[C@@H]2c1ccccc1,> 100 µM,> 100 µM,> 100 µM,> 100 µM,> 100 µM,> 100 µM
COc1cc2c(cc1OC)C(=O)N(NC1=NCCN1)C2=O,> 100 µM,> 100 µM,> 100 µM,> 100 µM,> 100 µM,> 100 µM
CCOC(=O)C(=O)C(CCC(=O)c1ccc2ccccc2c1O)C(=O)OCC (stereo not drawn),> 100 µM,,> 100 µM,> 100 µM,> 100 µM,> 100 µM
CN(C)Cc1cc(C(C)(C)C)cc(C2CCCCC2)c1O,21.6 µM,40 µM,,29.9 µM,17.9 µM,26.4 µM
C/C=C/[C@H](O[Si](C)(C)C(C)(C)C)[C@@H](O)/C=C/C(=O)OCC,89.8 µM,39.8 µM,46 µM,48.1 µM,28.4 µM,34.6 µM
CCC(=O)C(C(C)/C=C/CCSc1ccccc1)C(O)CCCCCC(=O)OC (stereo not drawn),,> 100 µM,> 100 µM,> 100 µM,> 100 µM,> 100 µM
CCCCNC(=S)/N=C/c1c(O)c2ccccc2[nH]c1=O,> 10 µM,> 10 µM,> 10 µM,> 10 µM,> 10 µM,> 10 µM
O=c1[nH]n(Cc2ccccc2Cl)c2ccccc12,,> 100 µM,,> 100 µM,> 100 µM,> 100 µM
COP(=O)(OC)/C(=C\c1cn(C(c2ccccc2)(c2ccccc2)c2ccccc2)cn1)NC(C)=O,> 100 µM,> 100 µM,> 100 µM,> 100 µM,> 100 µM,> 100 µM
c1ccc(CC2(c3cc4ccccc4[nH]3)OCCO2)nc1,> 100 µM,> 100 µM,> 100 µM,> 100 µM,> 100 µM,> 100 µM
C[C@]12CC[C@H](O)CC1=CC[C@@H]1C2CC[C@]2(C)Nc3c(cnn3-c3ccc(F)cc3)CC12 (stereo partly drawn),> 100 µM,61.1 µM,6.82 µM,> 100 µM,> 100 µM,> 100 µM
COCCOC(=O)C(C)=[N+]=[N-],> 100 µM,> 100 µM,> 100 µM,> 100 µM,> 100 µM,> 100 µM
Cc1ncc([N+](=O)[O-])n1CCNC(=O)Cn1c([N+](=O)[O-])cnc1C,> 100 µM,> 100 µM,> 100 µM,> 100 µM,> 100 µM,> 100 µM
CC(C)C(NCc1c(O)ccc2c(-c3ccccc3)cc(=O)oc12)C(=O)O (stereo not drawn),> 100 µM,> 100 µM,> 100 µM,> 100 µM,> 100 µM,> 100 µM
COc1cc(C(=O)Oc2c(C#N)sc3c2c(=O)n(-c2ccccc2)c(=S)n3-c2ccccc2)cc(OC)c1OC,> 100 µM,48.3 µM,27.9 µM,32.3 µM,28 µM,59.2 µM
O=C(NNC(=O)c1ccccc1O)c1ccc(O)cc1,> 100 µM,> 100 µM,> 100 µM,> 100 µM,> 100 µM,> 100 µM
FC1=C2CCCCCC2SC1(F)F (stereo not drawn),> 100 µM,,> 100 µM,,52.4 µM,> 100 µM
CC(=O)OCC(Br)C1(C)CCC(C(C)(C)Br)O1 (stereo not drawn),,> 100 µM,> 100 µM,> 100 µM,> 100 µM,
CN(C)Cc1cc(N=Nc2ccc(Cl)cc2)ccc1OC(=O)c1ccccc1,,26.5 µM,28.7 µM,28.2 µM,31 µM,34.4 µM
COc1cc(C2C(Cl)C(=O)N2NC(=O)c2ccc(NC(C)=O)cc2OC)ccc1O (stereo not drawn),52.2 µM,,> 100 µM,35 µM,53.6 µM,73.3 µM
COc1ccc(CCNC(=O)[C@H]2CCCC[C@@H]2CCO)cc1OC,> 100 µM,> 100 µM,> 100 µM,> 100 µM,,> 100 µM
CC(=O)c1sc(=N)n(-c2c(C)cccc2C)c1C,> 100 µM,> 100 µM,,> 100 µM,> 100 µM,
CC(=O)ON(C(C)=O)c1ccc(-c2nc3ccccc3s2)cc1C,,> 100 µM,> 100 µM,> 100 µM,> 100 µM,> 100 µM
COc1ccccc1CNC(=O)[C@H](Cc1ccc(O)cn1)NC(C)=O,> 100 µM,> 100 µM,> 100 µM,> 100 µM,> 100 µM,
